Laboratory results from patent US20250120958A1, “Treatment of GM2 Gangliosidosis” (Azafaros B.V., priority 2022, published 2025).

Legend:
[1] = test system: Sandhoff mouse model (Hexb (−/−)); assay: Survival study in Sandhoff mouse model; type: in vivo; settings: Hexb (−/−) mice, treated vs vehicle/untreated
Text: (strain: B6; 129S4-Hexbtm1Rlp/J). The mouse line was maintained by crossing homozygous −/− males with heterozygous females (generating litters with 50%−/− and 50%+/−) under specific pathogen-free conditions. All mice were housed in individual, ventilated cages (IVCs) with 12-h light/dark cycles with food and water ad libitum. Young-adult mice of the same genetic C57BL/6 background were from Jackson Laboratories. Breeding of Hexb mutants will target needs of the “Long-term” cohorts first, followed by the “16-week” biomarker study.
Cohort 1: There were a total of 6 dose groups and 2 vehicle groups using both Hexb+/− and Hexb−/− animals. […] Dosing occurred daily from day 30 to day 170, unless the animal was prematurely euthanized per protocol.
A subsequent study to explore lower doses was also performed (in the same manner as in Example 2) in which doses of 0.02, 0.06, 0.2 and 0.5 mg/kg/day were used. […] It is unclear why the 0.06 mg/kg/day had less survival as formulations were checked and confirmed accurate dosing (internal data).

Sandhoff mice = settings: Aspirin combined with substrate reduction therapy; cited from earlier work
[2] = Dynamic vapour sorption (DVS); type: physicochemical; settings: high relative humidity
Text: In addition, the behaviour of the sample of the Form 3 crystalline form of compound of formula (I) obtained by equilibration with ethyl acetate was investigated under variable water vapour pressures (DVS measurement). At the highest relative humidity of 95% the sample absorbed about 1.2% of water that was released when the relative humidity was returned to the 50% RH. The amount of absorbed water is small, and the water sorption is reversible. […] For Form 2, at high relative humidity the sample absorbed about 18% of water; however, most of the absorbed water was released when the relative humidity was returned to the 50% RH.
Dynamic vapour sorption (DVS) measurements were performed with an SPS11-100n “Sorptions Prufsystem” from ProUmid (formerly “Projekt Messtechnik”), August-Nagel-Str. 23, 89079 Ulm (Germany). About 5 mg to 20 mg of sample was put into an aluminum sample pan. Humidity change rates of 5% per hour were used.

## OC[C@H]1[C@@H](O)[C@H](O)[C@@H](O)CN1CCCCCOCc1ccc(-c2ccccc2)c(F)c1 [compound of formula (I)]
[1]
  increase in survival / life expectancy: at least 22%

## CC(=O)Oc1ccccc1C(=O)O [Aspirin]
Sandhoff mice
  maximum improvement of survival: 73%
  synergy, improvement in survival: 11%

## OC[C@H]1[C@@H](O)[C@H](O)[C@@H](O)CN1CCCCCOCc1ccc(-c2ccccc2)c(F)c1 [Form 2]
[2]
  water absorbed (DVS): about 18%
